Measurements taken from ChEMBL document CHEMBL3585344, “Thiazole-based aminopyrimidines and N-phenylpyrazolines as potent antimicrobial agents: synthesis and biological evaluation” (2014).
In brackets after ≈: the same amount, converted by molar mass.

How the values were obtained:
Penicillium ochrochloron [1] = assay: Antifungal activity against Penicillium ochrochloron ATCC 9112 after 72 hrs by microdilution method; format: functional; conditions: ATCC 9112, 72 h
Staphylococcus aureus [2] = assay: Antibacterial activity against Staphylococcus aureus ATCC 6538 after 24 hrs by microdilution method; format: functional; conditions: ATCC 6538, 24 h
Aspergillus versicolor [3] = assay: Antifungal activity against Aspergillus versicolor ATCC 11730 after 72 hrs by microdilution method; format: functional; conditions: ATCC 11730, 72 h
Talaromyces funiculosus [4] = assay: Fungicidal activity against Penicillium funiculosum ATCC 36839 after 72 hrs by microdilution method; format: functional
Micrococcus flavus [5] = assay: Antibacterial activity against Micrococcus flavus ATCC 10240 after 24 hrs by microdilution method; format: functional; conditions: ATCC 10240, 24 h
Aspergillus fumigatus [6] = assay: Fungicidal activity against Aspergillus fumigatus isolated from human after 72 hrs by microdilution method; format: functional
Staphylococcus aureus [7] = assay: Bactericidal activity against Staphylococcus aureus ATCC 6538 after 72 hrs by microdilution method; format: functional
Aspergillus flavus [8] = assay: Fungicidal activity against Aspergillus flavus ATCC 9643 after 72 hrs by microdilution method; format: functional
Escherichia coli [9] = assay: Bactericidal activity against Escherichia coli ATCC 35210 after 72 hrs by microdilution method; format: functional
Salmonella typhimurium [10] = assay: Antibacterial activity against Salmonella typhimurium ATCC 13311 after 24 hrs by microdilution method; format: functional, Salmonella enterica subsp. enterica serovar Typhimurium; conditions: Salmonella enterica, ATCC 13311, 24 h
Bacillus cereus [11] = assay: Antibacterial activity against Bacillus cereus clinical isolate after 24 hrs by microdilution method; format: functional
Aspergillus ochraceus [12] = assay: Antifungal activity against Aspergillus ochraceus ATCC 12066 after 72 hrs by microdilution method; format: functional; conditions: ATCC 12066, 72 h
Aspergillus flavus [13] = assay: Antifungal activity against Aspergillus flavus ATCC 9643 after 72 hrs by microdilution method; format: functional; conditions: ATCC 9643, 72 h
Trichoderma viride [14] = assay: Antifungal activity against Trichoderma viride IAM 5061 after 72 hrs by microdilution method; format: functional; conditions: IAM 5061, 72 h
Pseudomonas aeruginosa [15] = assay: Bactericidal activity against Pseudomonas aeruginosa ATCC 27853 after 72 hrs by microdilution method; format: functional
Listeria monocytogenes [16] = assay: Bactericidal activity against Listeria monocytogenes NCTC 7973 after 72 hrs by microdilution method; format: functional
Trichoderma viride [17] = assay: Fungicidal activity against Trichoderma viride IAM 5061 after 72 hrs by microdilution method; format: functional
Aspergillus versicolor [18] = assay: Fungicidal activity against Aspergillus versicolor ATCC 11730 after 72 hrs by microdilution method; format: functional
Aspergillus fumigatus [19] = assay: Antifungal activity against Aspergillus fumigatus isolated from human after 72 hrs by microdilution method; format: functional
Talaromyces funiculosus [20] = assay: Antifungal activity against Penicillium funiculosum ATCC 36839 after 72 hrs by microdilution method; format: functional; conditions: ATCC 36839, 72 h
Aspergillus niger [21] = assay: Antifungal activity against Aspergillus niger ATCC 6275 after 72 hrs by microdilution method; format: functional; conditions: ATCC 6275, 72 h
Salmonella typhimurium [22] = assay: Bactericidal activity against Salmonella typhimurium ATCC 13311 after 72 hrs by microdilution method; format: functional, Salmonella enterica subsp. enterica serovar Typhimurium
Micrococcus flavus [23] = assay: Bactericidal activity against Micrococcus flavus ATCC 10240 after 72 hrs by microdilution method; format: functional
Aspergillus ochraceus [24] = assay: Fungicidal activity against Aspergillus ochraceus ATCC 12066 after 72 hrs by microdilution method; format: functional
Penicillium ochrochloron [25] = assay: Fungicidal activity against Penicillium ochrochloron ATCC 9112 after 72 hrs by microdilution method; format: functional
Enterococcus faecalis [26] = assay: Bactericidal activity against Enterococcus faecalis ATCC 7080 isolated from human after 72 hrs by microdilution method; format: functional
Bacillus cereus [27] = assay: Bactericidal activity against Bacillus cereus clinical isolate after 72 hrs by microdilution method; format: functional
Enterococcus faecalis [28] = assay: Antibacterial activity against Enterococcus faecalis ATCC 7080 isolated from human after 24 hrs by microdilution method; format: functional; conditions: ATCC 7080, 24 h
Listeria monocytogenes [29] = assay: Antibacterial activity against Listeria monocytogenes NCTC 7973 after 24 hrs by microdilution method; format: functional; conditions: NCTC 7973, 24 h
Pseudomonas aeruginosa [30] = assay: Antibacterial activity against Pseudomonas aeruginosa ATCC 27853 after 24 hrs by microdilution method; format: functional; conditions: ATCC 27853, 24 h
Aspergillus niger [31] = assay: Fungicidal activity against Aspergillus niger ATCC 6275 after 72 hrs by microdilution method; format: functional
Escherichia coli [32] = assay: Antibacterial activity against Escherichia coli ATCC 35210 after 24 hrs by microdilution method; format: functional; conditions: ATCC 35210, 24 h
Enterobacter cloacae [33] = assay: Bactericidal activity against Enterobacter cloacae ATCC 35030 isolated from human after 72 hrs by microdilution method; format: functional
Enterobacter cloacae [34] = assay: Antibacterial activity against Enterobacter cloacae ATCC 35030 isolated from human after 24 hrs by microdilution method; format: functional; conditions: ATCC 35030, 24 h

Row | Compound | MIC (Penicillium ochrochloron [1]) [µM] | MIC (Staphylococcus aureus [2]) [µM] | MIC (Aspergillus versicolor [3]) [µM] | MFC99.5 (Talaromyces funiculosus [4]) [×10⁻² umol/ml] | MIC (Micrococcus flavus [5]) [µM] | MFC99.5 (Aspergillus fumigatus [6]) [×10⁻² umol/ml] | MBC99.5 (Staphylococcus aureus [7]) [×10⁻² umol/ml] | MBC99.5 (Escherichia coli [9]) [×10⁻² umol/ml] | MIC (Salmonella typhimurium [10]) [µM] | MIC (Bacillus cereus [11]) [µM] | MBC99.5 (Pseudomonas aeruginosa [15]) [×10⁻² umol/ml] | MBC99.5 (Listeria monocytogenes [16]) [×10⁻² umol/ml] | MBC99.5 (Salmonella typhimurium [22]) [×10⁻² umol/ml] | MBC99.5 (Micrococcus flavus [23]) [×10⁻² umol/ml] | MBC99.5 (Enterococcus faecalis [26]) [×10⁻² umol/ml] | MBC99.5 (Bacillus cereus [27]) [×10⁻² umol/ml] | MIC (Enterococcus faecalis [28]) [µM] | MIC (Listeria monocytogenes [29]) [µM] | MIC (Pseudomonas aeruginosa [30]) [µM] | MIC (Escherichia coli [32]) [µM] | other results
1 | Cc1nc(-c2ccccc2)sc1-c1cc(-c2ccccc2)nc(N)n1 | 348 (≈ 120 µg/mL) | 14.5 (≈ 4.99 µg/mL) | 14.5 (≈ 4.99 µg/mL) | 34.8 | 58 (≈ 20 µg/mL) | 34.8 | 5.8 | 40.6 | 290 (≈ 99.9 µg/mL) | 58 (≈ 20 µg/mL) | 40.6 | 36.25 | 34.8 | 29 | 34.8 | 40.6 | 290 (≈ 99.9 µg/mL) | 14.5 (≈ 4.99 µg/mL) | 290 (≈ 99.9 µg/mL) | 348 (≈ 120 µg/mL) | MFC99.5 (Aspergillus flavus [8]): 29 ×10⁻² umol/ml; MIC (Aspergillus ochraceus [12]): 14.5 µM (≈ 4.99 µg/mL); MIC (Aspergillus flavus [13]): 58 µM (≈ 20 µg/mL); MIC (Trichoderma viride [14]): 14.5 µM (≈ 4.99 µg/mL); MFC99.5 (Trichoderma viride [17]): 29 ×10⁻² umol/ml; MFC99.5 (Aspergillus versicolor [18]): 9 ×10⁻² umol/ml; MIC (Aspergillus fumigatus [19]): 58 µM (≈ 20 µg/mL); MIC (Talaromyces funiculosus [20]): 348 µM (≈ 120 µg/mL); MIC (Aspergillus niger [21]): 58 µM (≈ 20 µg/mL); MFC99.5 (Aspergillus ochraceus [24]): 5.8 ×10⁻² umol/ml; MFC99.5 (Penicillium ochrochloron [25]): 40.6 ×10⁻² umol/ml; MFC99.5 (Aspergillus niger [31]): 40.6 ×10⁻² umol/ml
2 | CCNc1nc(C)c(C2=NN(c3ccccc3)C(c3ccccc3)C2)s1 (centres undefined) | 309 (≈ 112 µg/mL) | 27.6 (≈ 10 µg/mL) | 55.2 (≈ 20 µg/mL) | 30.9 | 110 (≈ 40 µg/mL) | 44.16 | 27.6 | 44.16 | 276 (≈ 100 µg/mL) | 55.2 (≈ 20 µg/mL) | 44.16 | 11.04 | 30.9 | 44.16 | 27.6 | 27.6 | 110 (≈ 40 µg/mL) | 55.2 (≈ 20 µg/mL) | 276 (≈ 100 µg/mL) | 276 (≈ 100 µg/mL) | MFC99.5 (Aspergillus flavus [8]): 27.6 ×10⁻² umol/ml; MIC (Aspergillus ochraceus [12]): 27.6 µM (≈ 10 µg/mL); MIC (Aspergillus flavus [13]): 110 µM (≈ 40 µg/mL); MIC (Trichoderma viride [14]): 276 µM (≈ 100 µg/mL); MFC99.5 (Trichoderma viride [17]): 30.9 ×10⁻² umol/ml; MFC99.5 (Aspergillus versicolor [18]): 27.6 ×10⁻² umol/ml; MIC (Aspergillus fumigatus [19]): 110 µM (≈ 40 µg/mL); MIC (Talaromyces funiculosus [20]): 110 µM (≈ 40 µg/mL); MIC (Aspergillus niger [21]): 309 µM (≈ 112 µg/mL); MFC99.5 (Aspergillus ochraceus [24]): 11.04 ×10⁻² umol/ml; MFC99.5 (Penicillium ochrochloron [25]): 44.16 ×10⁻² umol/ml; MFC99.5 (Aspergillus niger [31]): 44.16 ×10⁻² umol/ml
3 | CNc1nc(C)c(C2=NN(c3ccccc3)C(c3ccc(C)cc3)C2)s1 (centres undefined) | 276 (≈ 100 µg/mL) | 110 (≈ 40 µg/mL) | 55.2 (≈ 20 µg/mL) | 44.16 | 276 (≈ 100 µg/mL) | 44.16 | 27.6 | 58.6 | 110 (≈ 40 µg/mL) | 55.2 (≈ 20 µg/mL) | 33.12 | 11.04 | 27.6 | 58.6 | 58.64 | 27.6 | 442 (≈ 160 µg/mL) | 96 (≈ 34.8 µg/mL) | 276 (≈ 100 µg/mL) | 276 (≈ 100 µg/mL) | MFC99.5 (Aspergillus flavus [8]): 27.6 ×10⁻² umol/ml; MIC (Aspergillus ochraceus [12]): 96 µM (≈ 34.8 µg/mL); MIC (Aspergillus flavus [13]): 110 µM (≈ 40 µg/mL); MIC (Trichoderma viride [14]): 55.2 µM (≈ 20 µg/mL); MFC99.5 (Trichoderma viride [17]): 11.04 ×10⁻² umol/ml; MFC99.5 (Aspergillus versicolor [18]): 27.6 ×10⁻² umol/ml; MIC (Aspergillus fumigatus [19]): 276 µM (≈ 100 µg/mL); MIC (Talaromyces funiculosus [20]): 276 µM (≈ 100 µg/mL); MIC (Aspergillus niger [21]): 442 µM (≈ 160 µg/mL); MFC99.5 (Aspergillus ochraceus [24]): 11.04 ×10⁻² umol/ml; MFC99.5 (Penicillium ochrochloron [25]): 44.6 ×10⁻² umol/ml; MFC99.5 (Aspergillus niger [31]): 58.6 ×10⁻² umol/ml
4 | CNc1nc(C)c(C2=NN(c3ccccc3)C(c3ccc(F)cc3)C2)s1 (centres undefined) | 214 (≈ 78.4 µg/mL) | 27.3 (≈ 10 µg/mL) | 54.6 (≈ 20 µg/mL) | 27.3 | 54.6 (≈ 20 µg/mL) | 10.92 | 27.3 | 47.8 | 54.6 (≈ 20 µg/mL) | 54.6 (≈ 20 µg/mL) | 27.3 | 95.5 | 27.3 | 47.8 | 27.3 | 27.3 | 54.6 (≈ 20 µg/mL) | 54.6 (≈ 20 µg/mL) | 27.3 (≈ 10 µg/mL) | 54.6 (≈ 20 µg/mL) | MFC99.5 (Aspergillus flavus [8]): 47.8 ×10⁻² umol/ml; MIC (Aspergillus ochraceus [12]): 54.6 µM (≈ 20 µg/mL); MIC (Aspergillus flavus [13]): 54.6 µM (≈ 20 µg/mL); MIC (Trichoderma viride [14]): 109 µM (≈ 40 µg/mL); MFC99.5 (Trichoderma viride [17]): 47.8 ×10⁻² umol/ml; MFC99.5 (Aspergillus versicolor [18]): 21.4 ×10⁻² umol/ml; MIC (Aspergillus fumigatus [19]): 54.6 µM (≈ 20 µg/mL); MIC (Talaromyces funiculosus [20]): 109 µM (≈ 40 µg/mL); MIC (Aspergillus niger [21]): 478 µM (≈ 175 µg/mL); MFC99.5 (Aspergillus ochraceus [24]): 27.3 ×10⁻² umol/ml; MFC99.5 (Penicillium ochrochloron [25]): 47.8 ×10⁻² umol/ml; MFC99.5 (Aspergillus niger [31]): 95.5 ×10⁻² umol/ml
5 | CC1(C)S[C@@H]2[C@H](NC(=O)[C@H](N)c3ccccc3)C(=O)N2[C@H]1C(=O)O [AMPICILLIN] |  | 248 (≈ 86.7 µg/mL) |  |  | 248 (≈ 86.7 µg/mL) |  | 37.2 | 49.2 | 248 (≈ 86.7 µg/mL) | 248 (≈ 86.7 µg/mL) | 124 | 74.4 | 49.2 | 37.2 | 37.2 | 37.2 | 248 (≈ 86.7 µg/mL) | 372 (≈ 130 µg/mL) | 744 (≈ 260 µg/mL) | 372 (≈ 130 µg/mL) | MBC99.5 (Enterobacter cloacae [33]): 37.2 ×10⁻² umol/ml; MIC (Enterobacter cloacae [34]): 248 µM (≈ 86.7 µg/mL)
6 | CN[C@@H]1[C@H](O[C@H]2[C@H](O[C@H]3[C@H](O)[C@@H](O)[C@H](N=C(N)N)[C@@H](O)[C@@H]3N=C(N)N)O[C@@H](C)[C@]2(O)C=O)O[C@@H](CO)[C@H](O)[C@H]1O [STREPTOMYCIN] |  | 172 (≈ 100 µg/mL) |  |  | 86 (≈ 50 µg/mL) |  | 34.4 | 34.4 | 172 (≈ 100 µg/mL) | 43 (≈ 25 µg/mL) | 34.4 | 51.6 | 34.4 | 17.2 | 8.6 | 8.6 | 43 (≈ 25 µg/mL) | 258 (≈ 150 µg/mL) | 172 (≈ 100 µg/mL) | 172 (≈ 100 µg/mL) | MBC99.5 (Enterobacter cloacae [33]): 8.6 ×10⁻² umol/ml; MIC (Enterobacter cloacae [34]): 43 µM (≈ 25 µg/mL)
